According to PMC8110578, “Phenylethynylbenzyl-modified biguanides inhibit pancreatic cancer tumor growth” (Scientific Reports, 2021):
Like-named read-outs stand apart in the source and are kept apart here.

How the values were obtained:
[1] = test system: red blood cells; assay: Hemolytic activity of PEB-biguanidium salts; format: cell-based; settings: red blood cells 2% v/v in PBS, 1 h at 37 °C
Method: The toxicity of PEB-Biguanidiums salts was estimated through their hemolytic activity by incubating red blood cells (RBC) with the compounds for 1 h (See Supplementary Table S13 and Supplementary Fig. S29).
Experimental. Red blood cells in Alsever’s solution were centrifuged for 10 min at 300g, washed 3 times with PBS buffer, and resuspended in PBS at 2% v/v. To each well of a 96-well plate, 195 µL of red blood cell solution and 5 µL of biguanidium salt in DMSO were added, and the plate was incubated with light agitation for 1 h at 37 °C. The plate was then centrifuged for 10 min at 300g, and 50 µL of the supernatant solution of each well was transferred to another plate. Absorbance was measured at λ = 405 nm. Each measurement was performed in triplicate in three different experiments.

[2] = test system: KP4 cells; assay: Growth assay (crystal violet), KP4 cells; format: cell-based, human; settings: KP4 cells, 3 days treatment, crystal violet retention assay, read-out: IC50 KP4
Method: (§1) All chemicals were purchased from Aldrich Chemicals in their highest purity and used without further purification. Deuterated dimethylsulfoxide (DMSO-d^6) and deuterated chloroform (CDCl3) were purchased from CDN Isotopes. NMR spectra were recorded on Bruker advance 400 and 100 spectrometers. Coupling constants are given in hertz (Hz) and chemical shifts are given in parts per million (ppm, δ) measured relative to the residual solvent (the multiplicity of the signals are given as s: singlet, d: doublet, t: triplet, and m: multiplet). High-resolution mass spectra (HRMS) were recorded on a TSQ Quantum Ultra (Thermo Scientific) triple quadrupole with accurate mass option instrument (Université de Montréal Mass Spectrometry Facility). MS experiences were performed using an UltrafleXtreme MALDI TOF/TOF mass spectrometer equipped with a SmartBeam II Nd:Yag/355 nm laser operating at 1 kHz and providing a laser focus down to 20 μm in diameter (Bruker Daltonics, Billerica, MA). The data acquisition for MS was performed in positive ion mode using the linear geometry with flexControl 3.4 (Bruker Daltonics, Billerica, MA). Acceleration voltage was set to + 25 kV and all other instrumental parameters (delayed extraction parameters, source voltages, detector gain, laser energy, etc.) were optimized for maximum S/N for the drug compounds. L-α-Phosphatidylcholine was purchased from Avanti Polar Lipids. Transport and depolarization studies as well as absorbance measurements were performed on a Varian Cary Eclipse fluorescence spectrophotometer. The hemolysis assays were performed on a Fluostar Optima plate reader. Single crystals of C18H18F3N5O3S were obtained from chloroform. A suitable crystal was selected and analysed on a Bruker Venture Metaljet diffractometer. Crystal violet retention assay was used for cell growth assays and IC50 were determined using Prism (GraphPad). NAD/NADH quantitation colorimetric kit (#K337-100) from Biovision was used according to manufacturer’s instructions. ECAR (extracellular acidification rate) and OCR of KP4 cells (oxygen consumption rate) were measured on a Seahorse XF-24 (Agilent).
(§2) Experimental. KP4 (Riken RCB1005) and PSN1 (ATCC: CRM-CRL-3211), were cultured in Dulbecco's modified Eagle's medium (DMEM) (Wisent, St-Bruno, QC) supplemented with 10 % of fetal bovine serum (FBS) (Wisent). HPNE hTERT (ATCC: CRL1423) were cultured in a mix of 75% DMEM without glucose (Sigma Cat#. D-5030) with additional 2 mM L-glutamine and 1.5 g/L sodium bicarbonate, 25% Medium M3 Base (Incell Corp. Cat# M300F- 500), fetal bovine serum 5% (wisent 10 ng/ml human recombinant EGF (Sigma-Aldrich), 5.5 mM D-glucose (Sigma-Aldrich), 750 ng/ml puromycin (Sigma-Aldrich). For dose-response assays, cells were seeded in 96 well plates (company). After 24 h, treatments were applied and cells were grown for 3 more days. Crystal violet retention assay used for cell growth assays were described previously^2. The data is expressed as relative absorbance of crystal violet extracted from the cells and diluted in 10 % acetic acid. IC50 were determined using Prism (GraphPad). Tumor spheres were grew according to Ferbeyre et al^3.

[3] = test system: HPNE cells (normal immortalized pancreatic epithelial cells); assay: Growth assay (crystal violet), HPNE cells; format: cell-based, human; settings: 3 days treatment, crystal violet retention assay
Method: . The IC50 of most of the synthetic biguanides in HPNE cells was higher than for cancer cells (Supplementary Table S12).
as §1, §2

[4] = test system: red blood cells; set-up: method as in PMID 23143143, doi:10.1039/C3md00293d; settings: cited from earlier work

| Compound | HC 10% (µM) [1] [µM] | HC 10% (µg/ml) [1] [µg/mL] | IC50 [2] [µM] | IC50 [3] [µM] | IC50 ([2]; Homo sapiens, KP-4, 72 h) [µM] | IC50 ([3]; Homo sapiens, HPNE, 72 h) [µM] | HC50 (concentration that kills 50% of red blood cells) [4] [mM] |
| --- | --- | --- | --- | --- | --- | --- | --- |
| N=C(N)NC(=N)NCc1ccc(CCc2ccccc2)cc1 [2b, 4-(phenylethyl)benzylbiguanide] | > 225 | > 100 | 17.4 | 31.3 |  |  |  |
| N=C(N)NC(=N)Nc1ccc(CCc2ccccc2)cc1 [4a, 4-(phenylethylphenyl)biguanidium] | > 178 | > 100 |  |  | 12.2 | 32.6 |  |
| C[n+]1cn(Cc2ccc(C#Cc3ccccc3)cc2)c2ccccc21 [A.3] |  |  |  |  |  |  | 150 |
| N=C(N)NC(=N)NCc1ccc(CCc2ccccc2)cc1 [2c, 4-(phenylethyl)benzylbiguanide] | 151 | 50 |  |  | 15.8 | 37.4 |  |
| N=C(N)NC(=N)NCc1ccc(C#Cc2ccccc2)cc1 [1c, 4-(phenylethynyl)benzylbiguanide] | > 305 | > 100 | 9.21 | 28.1 |  |  |  |
| C(#Cc1ccc(Cn2c[n+](Cc3ccccc3)c3ccccc32)cc1)c1ccccc1 [A.2] |  |  |  |  |  |  | 1 |
| N=C(N)NC(=N)Nc1ccc(CCc2ccccc2)cc1 [4c, 4-(phenylethylphenyl)biguanidium] | > 315 | > 100 | 16.9 |  |  |  |  |
| N=C(N)NC(=N)NCc1ccc(CCc2ccccc2)cc1 [2a, 4-(phenylethyl)benzylbiguanide] | > 173 | > 100 | 20.7 | 23.2 |  |  |  |
| N=C(N)NC(=N)Nc1ccc(C#Cc2ccccc2)cc1 [3b, 4-(phenylethynylphenyl)biguanidium] | > 234 | > 100 | 58.3 | 60.4 |  |  |  |
| N=C(N)NC(=N)Nc1ccc(CCc2ccccc2)cc1 [4b, 4-(phenylethylphenyl)biguanidium] | > 232 | > 100 | 13.9 | 47.4 |  |  |  |
| C(#Cc1ccc(Cn2c[n+](Cc3ccc(C#Cc4ccccc4)cc3)c3ccccc32)cc1)c1ccccc1 [A.1] |  |  |  |  |  |  | 0.15 |
| N=C(N)NC(=N)Nc1ccc(C#Cc2ccccc2)cc1 [3c, 4-(phenylethynylphenyl)biguanidium] | > 319 | > 100 | 38.9 | 52.6 |  |  |  |
| N=C(N)NC(=N)Nc1ccc(C#Cc2ccccc2)cc1 [3a, 4-(phenylethynylphenyl)biguanidium] | > 179 | > 100 | 17 | 20.2 |  |  |  |
